Source: ChEMBL document CHEMBL6153106, “Synergistic Anti-Ferroptosis with a Minimalistic, Peroxide-Triggered Carbon Monoxide Donor for Parkinson's Disease” (J Med Chem, 2025)
Active and inactive are the calls of the source. No cut-off for these calls is given here.

What was measured:
[1] = Induction of ONOO-induced CO release in PBS buffer at pH 7.4 at 100 uM by HPLC analysis; type: functional
[2] = Induction of H2O2-induced CO release in PBS buffer at pH 7.4 at 100 uM by HPLC analysis; type: functional
[3] = Induction of H2O2-induced CO release in PBS buffer at pH 7.4 assessed as retention time at 100 uM by gas chromatography analysis; type: functional
[4] = Induction of ONOO-induced CO release in PBS buffer at pH 7.4 assessed as retention time at 100 uM by gas chromatography analysis; type: functional
[5] = Induction of ONOO-induced CO release in PBS buffer at pH 7.4 at 100 uM by gold-standard CO-myoglobin assay; type: functional
[6] = Induction of ONOO-induced CO release in PBS buffer at pH 7.4 at 100 uM in presence of PdCl2 by fluorescence based analysis; type: functional
[7] = Induction of ONOO-induced CO release in PBS buffer at pH 7.4 assessed as increase in fluorescence intensity at 100 uM incubated for 30 min by gas detector analysis; type: functional
[8] = Induction of H2O2-induced CO release in PBS buffer at pH 7.4 assessed as increase in fluorescence intensity at 100 uM incubated for 30 min by gas detector analysis; type: functional
[9] = tested on: SH-SY5Y; experiment: Inhibition of ferroptosis in MPP+-induced human SH-SY5Y cells assessed as decrease in intracellular ONOO release by measuring fluorescence intensity at 10 uM pretreated with MPP+ for 20 hrs followed by compound treatment for 2 hrs by HK-green-4I probe based confocal microscopic analysis; type: functional, cell-based
[10] = tested on: SH-SY5Y; experiment: Inhibition of ferroptosis in MPP+-induced human SH-SY5Y cells assessed as decrease in intracellular Fe2+ release by measuring fluorescence intensity at 10 uM pretreated with MPP+ for 20 hrs followed by compound treatment for 2 hrs by FerroOrange probe based confocal microscopic analysis; type: functional, cell-based
[11] = tested on: SH-SY5Y; experiment: Inhibition of ferroptosis in MPP+-induced human SH-SY5Y cells assessed as induction of CO release by measuring increase in fluorescent intensity at 10 uM pretreated with MPP+ for 20 hrs followed by compound treatment for 30 mins by COP490 probe based confocal microscopic analysis; type: functional, cell-based
[12] = tested on: SH-SY5Y; experiment: Inhibition of ferroptosis in MPP+-induced human SH-SY5Y cells assessed as increase in GPX4 level by Western blot analysis; type: functional, cell-based
[13] = tested on: SH-SY5Y; experiment: Inhibition of ferroptosis in MPP+-induced human SH-SY5Y cells assessed as reduction in DMT1 level by Western blot analysis; type: functional, cell-based
[14] = tested on: SH-SY5Y; experiment: Inhibition of ferroptosis in MPP+-induced human SH-SY5Y cells assessed as reduction in 4-HNE level by Western blot analysis; type: functional, cell-based
[15] = tested on: Mus musculus; experiment: Anti-parkinson activity in MPTP-induced male C57BL/6J mouse model assessed as increase in total distance traveled at 6 mg/kg, iv pretreated with compound for 1 day followed by MPTP-induction for 2 to 9 days and measured after 10 days by open field test; type: functional, organism-based; details: time 10.0 day
[16] = tested on: Mus musculus; experiment: Anti-parkinson activity in MPTP-induced male C57BL/6J mouse model assessed as increase in mean speed at 6 mg/kg, iv pretreated with compound for 1 day followed by MPTP-induction for 2 to 9 days and measured after 10 days by open field test; type: functional, organism-based; details: time 10.0 day
[17] = tested on: Mus musculus; experiment: Anti-parkinson activity in MPTP-induced male C57BL/6J mouse model assessed as increase in distance traveled in open arms at 6 mg/kg, iv pretreated with compound for 1 day followed by MPTP-induction for 2 to 9 days and measured after 10 days by elevated plus maze test; type: functional, organism-based; details: time 10.0 day
[18] = tested on: Mus musculus; experiment: Anti-parkinson activity in MPTP-induced male C57BL/6J mouse model assessed as increase in frequency of open arms entries at 6 mg/kg, iv pretreated with compound for 1 day followed by MPTP-induction for 2 to 9 days and measured after 10 days by elevated plus maze test; type: functional, organism-based; details: time 10.0 day
[19] = tested on: Mus musculus; experiment: Anti-parkinson activity in MPTP-induced male C57BL/6J mouse model assessed as increase in total number of fecal pellets production at 6 mg/kg, iv pretreated with compound for 1 day followed by MPTP-induction for 2 to 9 days and measured after 10 days by elevated plus maze test; type: functional, organism-based; details: time 10.0 day
[20] = tested on: Mus musculus; experiment: Anti-parkinson activity in MPTP-induced male C57BL/6J mouse model assessed as increase in latency period at 6 mg/kg, iv pretreated with compound for 1 to 11 days followed by MPTP-induction for 1 to 5 days and measured on day 24 by rotarod test; type: functional, organism-based; details: time 24.0 day
[21] = tested on: Mus musculus; experiment: Anti-parkinson activity in MPTP-induced male C57BL/6J mouse model assessed as decrease in descending time at 6 mg/kg, iv pretreated with compound for 1 to 11 days followed by MPTP-induction for 1 to 5 days and measured on day 24 by pole test; type: functional, organism-based; details: time 24.0 day
[22] = tested on: Mus musculus; experiment: Anti-parkinson activity in MPTP-induced male C57BL/6J mouse model assessed as improvement in hindlimb clasping reflex at 6 mg/kg, iv pretreated with compound for 1 to 11 days followed by MPTP-induction for 1 to 5 days and measured on day 24 by hindlimb clasping test; type: functional, organism-based; details: time 24.0 day
[23] = tested on: Mus musculus; experiment: Anti-parkinson activity in MPTP-induced male C57BL/6J mouse model assessed as increase in TH level in substantia nigra pars compacta at 6 mg/kg, iv pretreated with compound for 1 to 11 days followed by MPTP-induction for 1 to 5 days and measured on day 26 by immunofluorescence analysis; type: functional, organism-based; details: time 26.0 day
[24] = tested on: Mus musculus; experiment: Anti-parkinson activity in MPTP-induced male C57BL/6J mouse model assessed as increase in TH level in substantia nigra pars compacta at 6 mg/kg, iv pretreated with compound for 1 to 11 days followed by MPTP-induction for 1 to 5 days and measured on day 26 by Western blot analysis; type: functional, organism-based; details: time 26.0 day
[25] = tested on: Mus musculus; experiment: Anti-parkinson activity in MPTP-induced male C57BL/6J mouse model assessed as decrease in total alpha-synuclein level in midbrain at 6 mg/kg, iv pretreated with compound for 1 to 11 days followed by MPTP-induction for 1 to 5 days and measured on day 26 by Western blot analysis; type: functional, organism-based; details: time 26.0 day
[26] = tested on: Mus musculus; experiment: Anti-parkinson activity in MPTP-induced male C57BL/6J mouse model assessed as decrease in phosphorylated alpha-synuclein level in midbrain at 6 mg/kg, iv pretreated with compound for 1 to 11 days followed by MPTP-induction for 1 to 5 days and measured on day 26 by Western blot analysis; type: functional, organism-based; details: time 26.0 day
[27] = tested on: Mus musculus; experiment: Anti-parkinson activity in MPTP-induced male C57BL/6J mouse model assessed as increase in GPX4 expression in midbrain at 6 mg/kg, iv pretreated with compound for 1 to 11 days followed by MPTP-induction for 1 to 5 days and measured on day 26 by Western blot analysis; type: functional, organism-based; details: time 26.0 day
[28] = tested on: Mus musculus; experiment: Anti-parkinson activity in MPTP-induced male C57BL/6J mouse model assessed as increase in SLC7A11 expression in midbrain at 6 mg/kg, iv pretreated with compound for 1 to 11 days followed by MPTP-induction for 1 to 5 days and measured on day 26 by Western blot analysis; type: functional, organism-based; details: time 26.0 day
[29] = tested on: Mus musculus; experiment: Anti-parkinson activity in MPTP-induced male C57BL/6J mouse model assessed as decrease in […] expression in midbrain at 6 mg/kg, iv pretreated with compound for 1 to 11 days followed by MPTP-induction for 1 to 5 days and measured on day 26 by Western blot analysis; type: functional, organism-based; details: time 26.0 day
[30] = tested on: Mus musculus; experiment: Anti-parkinson activity in MPTP-induced male C57BL/6J mouse model assessed as increase in GPX4 expression in substantia nigra pars compacta at 6 mg/kg, iv pretreated with compound for 1 to 11 days followed by MPTP-induction for 1 to 5 days and measured on day 26 by immunostaining based analysis; type: functional, organism-based; details: time 26.0 day
[31] = tested on: Mus musculus; experiment: Anti-parkinson activity in MPTP-induced male C57BL/6J mouse model assessed as increase in TH expression in substantia nigra pars compacta at 6 mg/kg, iv pretreated with compound for 1 to 11 days followed by MPTP-induction for 1 to 5 days and measured on day 26 by immunostaining based analysis; type: functional, organism-based; details: time 26.0 day
[32] = tested on: Mus musculus; experiment: Anti-parkinson activity in MPTP-induced male C57BL/6J mouse model assessed as reduction in 4-HNE level in midbrain at 6 mg/kg, iv pretreated with compound for 1 to 11 days followed by MPTP-induction for 1 to 5 days and measured on day 26 by Western blot analysis; type: functional, organism-based; details: time 26.0 day
[33] = tested on: Mus musculus; experiment: Anti-parkinson activity in MPTP-induced male C57BL/6J mouse model assessed as reduction in MDA level in midbrain at 6 mg/kg, iv pretreated with compound for 1 to 11 days followed by MPTP-induction for 1 to 5 days and measured on day 26 by Western blot analysis; type: functional, organism-based; details: time 26.0 day
[34] = tested on: Mus musculus; experiment: Anti-parkinson activity in MPTP-induced male C57BL/6J mouse model assessed as reduction in free ferrous iron level in midbrain at 6 mg/kg, iv pretreated with compound for 1 to 11 days followed by MPTP-induction for 1 to 5 days and measured on day 21; type: functional, organism-based; details: time 21.0 day
[35] = tested on: Mus musculus; experiment: Anti-parkinson activity in MPTP-induced male C57BL/6J mouse model assessed as reduction in TFRC level in midbrain at 6 mg/kg, iv pretreated with compound for 1 to 11 days followed by MPTP-induction for 1 to 5 days and measured on day 21; type: functional, organism-based; details: time 21.0 day
[36] = tested on: Mus musculus; experiment: Anti-parkinson activity in MPTP-induced male C57BL/6J mouse model assessed as reduction in DMT1 level in midbrain at 6 mg/kg, iv pretreated with compound for 1 to 11 days followed by MPTP-induction for 1 to 5 days and measured on day 21; type: functional, organism-based; details: time 21.0 day
[37] = tested on: Mus musculus; experiment: Anti-parkinson activity in MPTP-induced male C57BL/6J mouse model assessed as reduction in NCOA4 level in midbrain at 6 mg/kg, iv pretreated with compound for 1 to 11 days followed by MPTP-induction for 1 to 5 days and measured on day 21; type: functional, organism-based; details: time 21.0 day

Q: With `CC(=O)c1cc(F)ccc1O` as the molecule, how does the Activity [1] read?
A: Active

Q: What about the Activity [2] of the same molecule?
A: Active

Q: For `COC(=O)C(=O)OC1(C)C(=O)Oc2ccc(F)cc21` (configuration not stated), which Retention time [3] is on record?
A: 3.86 min

Q: And the Retention time [4]?
A: 1.96 min

Q: And the Activity [5]?
A: Active

Q: And the Activity [6]?
A: Weak_effect

Q: And the Activity [7]?
A: Active

Q: What about the Activity [8] of the same molecule?
A: Active

Q: What about the inhibition [9] of the same molecule?
A: Active

Q: What about the inhibition [10] of the same molecule?
A: Active

Q: What about the inhibition [11] of the same molecule?
A: Active

Q: And the inhibition [12]?
A: Active

Q: What about the inhibition [13] of the same molecule?
A: Active

Q: What about the inhibition [14] of the same molecule?
A: Active

Q: What about the Activity [15] of the same molecule?
A: Active

Q: And the Activity [16]?
A: Active

Q: What about the Activity [17] of the same molecule?
A: Active

Q: What about the Activity [18] of the same molecule?
A: Active

Q: What about the Activity [19] of the same molecule?
A: Active

Q: And the Activity [20]?
A: Active

Q: And the Activity [21]?
A: Active

Q: What about the Activity [22] of the same molecule?
A: Active

Q: What about the Activity [23] of the same molecule?
A: Active

Q: What about the Activity [24] of the same molecule?
A: Active

Q: And the Activity [25]?
A: Active

Q: What about the Activity [26] of the same molecule?
A: Active

Q: And the Activity [27]?
A: Active

Q: What about the Activity [28] of the same molecule?
A: Active

Q: And the Activity [29]?
A: Active

Q: What about the Activity [30] of the same molecule?
A: Active

Q: What about the Activity [31] of the same molecule?
A: Active

Q: And the Activity [32]?
A: Active

Q: And the Activity [33]?
A: Active

Q: And the Activity [34]?
A: Active

Q: And the Activity [35]?
A: Active

Q: What about the Activity [36] of the same molecule?
A: Active

Q: And the Activity [37]?
A: Active
